# According to patent US10093656B2, “Fused-ring or tricyclic aryl pyrimidine compound used as kinase inhibitor” (NANJING SANHOME PHARMACEUTICAL CO., LTD, priority 2015, dated 2018):
# What was measured:
# EGFR wild type = biological target: T1, EGFR wild type (Homo sapiens, UniProt P00533); assay: Wild-type EGFR enzyme HTRF inhibition assay; assay type: biochemical; settings: 25 μM ATP, read-out: EGFR WT IC50
# T1 construct: purchased Life technology (Madison, Wis.)
# Method in brief: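 HTRF with 0.05 nM wild-type EGFR, 1 μM biotin-TK1 peptide, 25 μM ATP, 60 min at 23° C; detected with Eu-anti-TK1 antibody 2 nM and XL665 62.5 nM, 60 min at 23° C. Ten 3-fold doses, 300 nM to 0.015 nM final; IC50 by four-parameter fit of % inhibition.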
# A431 cells EGFR WT = assay: A431 cell viability assay (Cell Titer-Glo, 6 days); assay type: cell-based, human
# Method in brief: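 A431 (EGFR WT) and NCI-H1975 (EGFR L858R/T790M) cells treated for 6 days at 37° C, in duplicate with 10 three-fold doses from 10 μM to 0.508 nM final. Viability read as CellTiter-Glo luminescence. IC50 from four-parameter fit of % inhibition.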
# [1] = test system: human skin squamous cell A431 xenograft (CDX); assay: Selectivity study in vivo, A431 xenograft (CDX) model; set-up: species or system BALB/c nude mice; settings: Table 5 experiment, AZD9291 5 mg/kg
# EGFR d746-750/T790M = biological target: T2, EGFR d746-750/T790M (Homo sapiens, UniProt P00533, DEL746-750/T790M); assay: EGFR d746-750/T790M enzyme HTRF inhibition assay; assay type: biochemical; settings: 40 μM ATP
# T2 construct: purchased Carna Biosciences (Japan)
# Method in brief: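 0.025 nM enzyme with 1 μM biotin-TK1 peptide and 40 μM ATP, 60 min at 23° C; compound tested at 10 doses, 300 nM to 0.015 nM final. HTRF read (Eu-anti-TK1 antibody 2 nM, XL665 62.5 nM, 60 min at 23° C); IC50 from four-parameter fit of % inhibition.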
# T1 sequence (P00533 25-1210): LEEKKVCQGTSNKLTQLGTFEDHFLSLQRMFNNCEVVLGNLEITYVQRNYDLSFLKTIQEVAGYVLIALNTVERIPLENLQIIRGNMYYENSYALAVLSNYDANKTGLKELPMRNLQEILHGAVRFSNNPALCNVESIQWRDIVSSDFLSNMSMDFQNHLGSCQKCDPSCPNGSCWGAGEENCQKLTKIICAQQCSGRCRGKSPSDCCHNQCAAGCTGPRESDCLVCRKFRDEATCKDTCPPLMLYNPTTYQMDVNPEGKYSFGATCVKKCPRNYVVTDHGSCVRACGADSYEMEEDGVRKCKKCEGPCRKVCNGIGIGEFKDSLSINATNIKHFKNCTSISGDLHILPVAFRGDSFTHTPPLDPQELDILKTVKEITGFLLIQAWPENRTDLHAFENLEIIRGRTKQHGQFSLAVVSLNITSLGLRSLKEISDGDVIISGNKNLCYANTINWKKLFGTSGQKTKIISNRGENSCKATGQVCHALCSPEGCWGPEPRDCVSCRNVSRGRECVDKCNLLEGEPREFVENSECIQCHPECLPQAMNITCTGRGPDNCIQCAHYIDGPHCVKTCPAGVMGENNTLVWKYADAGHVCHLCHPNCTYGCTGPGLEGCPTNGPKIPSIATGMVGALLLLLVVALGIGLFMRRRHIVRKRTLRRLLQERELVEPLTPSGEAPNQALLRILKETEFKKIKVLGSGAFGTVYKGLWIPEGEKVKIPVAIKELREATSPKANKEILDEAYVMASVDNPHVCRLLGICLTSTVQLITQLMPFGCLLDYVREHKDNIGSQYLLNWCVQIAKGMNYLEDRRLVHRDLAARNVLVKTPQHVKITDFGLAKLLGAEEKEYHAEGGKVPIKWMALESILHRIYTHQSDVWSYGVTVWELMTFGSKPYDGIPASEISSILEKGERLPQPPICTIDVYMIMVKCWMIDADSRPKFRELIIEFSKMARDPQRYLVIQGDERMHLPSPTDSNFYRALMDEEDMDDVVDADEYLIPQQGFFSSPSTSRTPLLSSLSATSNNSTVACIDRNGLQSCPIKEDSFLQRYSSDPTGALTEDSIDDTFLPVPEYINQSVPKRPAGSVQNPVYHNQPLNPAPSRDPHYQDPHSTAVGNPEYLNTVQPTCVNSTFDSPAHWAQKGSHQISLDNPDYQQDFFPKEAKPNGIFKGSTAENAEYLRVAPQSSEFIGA
# T2 sequence (P00533 with tags, fused parts or gaps DEL746-750/T790M limits assumed): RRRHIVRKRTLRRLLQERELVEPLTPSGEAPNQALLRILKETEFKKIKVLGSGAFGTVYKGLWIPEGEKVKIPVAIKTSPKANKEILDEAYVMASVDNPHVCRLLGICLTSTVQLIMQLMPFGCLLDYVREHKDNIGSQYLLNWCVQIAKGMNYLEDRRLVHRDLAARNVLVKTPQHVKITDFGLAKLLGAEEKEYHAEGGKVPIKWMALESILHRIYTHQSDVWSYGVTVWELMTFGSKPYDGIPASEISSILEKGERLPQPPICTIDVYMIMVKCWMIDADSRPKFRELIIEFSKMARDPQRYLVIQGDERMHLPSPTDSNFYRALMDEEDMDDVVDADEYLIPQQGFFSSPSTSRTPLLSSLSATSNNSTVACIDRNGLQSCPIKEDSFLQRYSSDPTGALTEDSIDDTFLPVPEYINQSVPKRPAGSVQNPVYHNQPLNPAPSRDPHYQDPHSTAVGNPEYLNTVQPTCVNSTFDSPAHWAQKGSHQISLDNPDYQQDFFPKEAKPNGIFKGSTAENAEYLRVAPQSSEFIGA
structure (smiles),measurement,setting,value
"C=CC(=O)Nc1cc(Nc2ncc(F)c(-c3c4n(c5cc(F)ccc35)CCOC4)n2)c(OC)cc1N(C)CCN(C)C [Embodiment 33, N-(2-((2-(Dimethylamino)ethyl)(methyl)amino)-5-((5-fluoro-4-(7-fluoro-3,4-dihydro-1H-[1,4]oxazino[4,3-a]indol-10-yl)pyrimidin-2-yl)amino)-4-methoxyphenyl)acrylamide]",IC50,EGFR wild type,2.6 nM
same,IC50,"A431 cells EGFR WT; Homo sapiens, A-431, 144 h, A431 cells, 6 days",693 nM
same,A431:NCI-H1975 (ratio),A431 cells EGFR WT; ratio of cell IC50 A431 to NCI-H1975,7.7
same,Tumor Volume (mm^3) 4 days,"[1]; day 4, oral once daily: 33, 34, 40, 42, 43 20 mg/kg",202 mm^3
same,Tumor Volume (mm^3) 11 days,"[1]; day 11, oral once daily: 33, 34, 40, 42, 43 20 mg/kg",428 mm^3
same,Tumor Volume (mm^3) 18 days,"[1]; day 18, oral once daily: 33, 34, 40, 42, 43 20 mg/kg",930 mm^3
same,IC50,EGFR d746-750/T790M,0.4 nM
